Measured values from patent US20230131966A1, “FUNGICIDAL AMIDES” (FMC Corporation, priority 2020, published 2023).

How the values were obtained:
Assay type in all cases: in vivo
[1] = system: Erysiphe graminis f. sp. tritici; assay: Test G: wheat powdery mildew control on wheat seedlings; settings: for Test G disease control rating (100 = 100% disease control, 0 = no disease control): rate 250 ppm, relative to the controls
[2] = system: Botrytis cinerea; assay: Test E: tomato Botrytis control on tomato seedlings; settings: for Test E disease control rating (100 = 100% disease control, 0 = no disease control): rate 250 ppm, relative to the controls
[3] = system: Phytophthora infestans; assay: whole plant or invertebrate; settings: tomato seedlings; for Test F disease control rating (100 = 100% disease control, 0 = no disease control): rate 250 ppm, relative to the controls
[4] = system: Phakopsora pachyrhizi; assay: Test A: Asian soybean rust control on soybean seedlings; settings: for Test A disease control rating (100 = 100% disease control, 0 = no disease control): rate 250 ppm, relative to the controls
[5] = system: Plasmopara viticola; assay: Test D: grape downy mildew control on grape seedlings; settings: for Test D disease control rating (100 = 100% disease control, 0 = no disease control): rate 250 ppm, relative to the controls
[6] = system: Puccinia recondita f. sp. tritici; assay: Test B: wheat leaf rust control on wheat seedlings; settings: for Test B disease control rating (100 = 100% disease control, 0 = no disease control): rate 250 ppm, relative to the controls
[7] = system: Zymoseptoria tritici; assay: Test C: wheat leaf blotch control on wheat seedlings; settings: for Test C disease control rating (100 = 100% disease control, 0 = no disease control): rate 250 ppm, relative to the controls
[8] = 250 ppm, 100 = 100% disease control, 0 = no control
[9] = 250 ppm, soybean seedlings, 100 = 100% disease control, 0 = no control
[10] = 250 ppm, wheat seedlings, 100 = 100% disease control, 0 = no control
[11] = 50 ppm, 100 = 100% disease control, 0 = no control
[12] = 50 ppm, wheat seedlings, 100 = 100% disease control, 0 = no control

COc1ccnc(C(=O)NC(C)C(=O)OC(C)c2ccc3ccccc3c2)c1OC(C)=O (mixture of isomers) [Compound 75]
Test G disease control rating [1, 8]: 0%
Test E disease control rating [2, 8]: 0%
Test F disease control rating [3, 8]: 0%
Test A disease control rating [4, 9]: 100%
Test D disease control rating [5, 8]: 61%
Test B disease control rating [6, 10]: 100%
Test C disease control rating [7, 10]: 100%

COc1ccnc(C(=O)NC(C)C(=O)OC(C)C2CCCCC2)c1O (mixture of isomers) [Compound 126]
Test G disease control rating [1, 8]: 0%
Test E disease control rating [2, 8]: 0%
Test F disease control rating [3, 8]: 0%
Test A disease control rating [4, 9]: 0%
Test D disease control rating [5, 8]: 3%
Test B disease control rating [6, 10]: 0%
Test C disease control rating [7, 10]: 10%

COc1ccnc(C(=O)N[C@@H](C)C(=O)OC(C)c2cccc(OC3CCC(C)(C)CC3)c2)c1O (stereo partly drawn) [Compound 138]
Test G disease control rating [1, 8]: 0%
Test E disease control rating [2, 8]: 0%
Test F disease control rating [3, 8]: 0%
Test A disease control rating [4, 9]: 95%
Test D disease control rating [5, 8]: 18%
Test B disease control rating [6, 10]: 74%
Test C disease control rating [7, 10]: 63%

COc1ccnc(C(=O)N[C@@H](C)C(=O)OC(C)c2cccc(OC3CCC(C)(C)CC3)c2)c1OC(C)=O (stereo partly drawn) [Compound 137]
Test G disease control rating [1, 8]: 43%
Test E disease control rating [2, 8]: 0%
Test F disease control rating [3, 8]: 0%
Test A disease control rating [4, 9]: 100%
Test D disease control rating [5, 8]: 11%
Test B disease control rating [6, 10]: 100%
Test C disease control rating [7, 10]: 92%

COc1ccnc(C(=O)N[C@@H](C)C(=O)OC(C)c2ccc(-n3ccc(C(F)(F)F)n3)cc2Cc2ccccc2)c1O (stereo partly drawn) [Compound 93]
Test G disease control rating [1, 8]: 0%
Test E disease control rating [2, 8]: 0%
Test F disease control rating [3, 8]: 0%
Test A disease control rating [4, 9]: 99%
Test D disease control rating [5, 8]: 0%
Test B disease control rating [6, 10]: 74%
Test C disease control rating [7, 10]: 72%

COc1ccnc(C(=O)NC(C)C(=O)OC(C)C2CCCCCC2)c1OC(C)=O (mixture of isomers) [Compound 101]
Test G disease control rating [1, 11]: 0%
Test E disease control rating [2, 11]: 0%
Test F disease control rating [3, 11]: 0%
Test A disease control rating ([4]; 50 ppm, soybean seedlings, 100 = 100% disease control, 0 = no control): 100%
Test D disease control rating [5, 11]: 86%
Test B disease control rating [6, 12]: 68%
Test C disease control rating [7, 12]: 66%

COc1ccnc(C(=O)N[C@@H](C)C(=O)OC(C)c2ccc(C(C)C)cc2)c1O (stereo partly drawn) [Compound 118]
Test G disease control rating [1, 8]: 0%
Test E disease control rating [2, 8]: 0%
Test F disease control rating [3, 8]: 0%
Test A disease control rating [4, 9]: 100%
Test D disease control rating [5, 8]: 85%
Test B disease control rating [6, 10]: 99%
Test C disease control rating [7, 10]: 86%

C=CCOc1c(OC)ccnc1C(=O)NC(C)C(=O)OC(C)c1ccc(C2CCCCC2)cc1 (mixture of isomers) [Compound 153]
Test G disease control rating [1, 8]: 0%
Test E disease control rating [2, 8]: 0%
Test F disease control rating [3, 8]: 26%
Test A disease control rating [4, 9]: 100%
Test D disease control rating [5, 8]: 70%
Test B disease control rating [6, 10]: 95%
Test C disease control rating [7, 10]: 24%

COc1ccnc(C(=O)NC(C(=O)OC(C)c2ccc(C3CCCCC3)cc2)C(C)C)c1O (mixture of isomers) [Compound 70]
Test G disease control rating [1, 8]: 13%
Test E disease control rating [2, 8]: 0%
Test F disease control rating [3, 8]: 24%
Test A disease control rating [4, 9]: 100%
Test D disease control rating [5, 8]: 63%
Test B disease control rating [6, 10]: 100%
Test C disease control rating [7, 10]: 97%

COc1ccnc(C(=O)NC(C)C(=O)OC(C)c2ccc(C3CCCCC3)cc2)c1OS(C)(=O)=O (mixture of isomers) [Compound 156]
Test G disease control rating [1, 8]: 0%
Test E disease control rating [2, 8]: 0%
Test F disease control rating [3, 8]: 17%
Test A disease control rating [4, 9]: 89%
Test D disease control rating [5, 8]: 7%
Test B disease control rating [6, 10]: 68%
Test C disease control rating [7, 10]: 13%

COc1ccnc(C(=O)N[C@@H](C)C(=O)OC(c2ccc(C3CCCCC3)cc2)C(F)(F)F)c1OC(C)=O (stereo partly drawn) [Compound 119]
Test G disease control rating [1, 8]: 48%
Test E disease control rating [2, 8]: 0%
Test F disease control rating [3, 8]: 0%
Test A disease control rating [4, 9]: 100%
Test D disease control rating [5, 8]: 27%
Test B disease control rating [6, 10]: 99%
Test C disease control rating [7, 10]: 88%

COc1ccnc(C(=O)NC(C)C(=O)OC(C)c2ccc(F)cc2Oc2ccccc2)c1OC(C)=O (mixture of isomers) [Compound 85]
Test G disease control rating [1, 8]: 0%
Test E disease control rating [2, 8]: 0%
Test F disease control rating [3, 8]: 0%
Test A disease control rating [4, 9]: 63%
Test D disease control rating [5, 8]: 62%
Test B disease control rating [6, 10]: 79%
Test C disease control rating [7, 10]: 67%

COc1ccnc(C(=O)N[C@H](C(=O)OC(C)c2ccc(C3CCCCC3)cc2)C(C)C)c1OC(C)=O (mixture of isomers) [Compound 79, N-[[3-(acetyloxy)-4-methoxy-2-pyridinyl]carbonyl]-L-valine 1-(4-cyclohexylphenyl)ethyl ester]
pest or weed control at 250 ppm ([1]; Blumeria graminis, 250 ppm, 100 = 100% disease control, 0 = no control, read-out: Test G disease control rating): 0%
pest or weed control at 250 ppm ([2]; Botrytis cinerea, 250 ppm, 100 = 100% disease control, 0 = no control, read-out: Test E disease control rating): 0%
pest or weed control at 250 ppm ([3]; Phytophthora infestans, in Solanum lycopersicum, read-out: Test F disease control rating, 250 ppm, 100 = 100% disease control, 0 = no control): 0%
pest or weed control at 250 ppm ([4]; Phakopsora pachyrhizi, 250 ppm, soybean seedlings, 100 = 100% disease control, 0 = no control, read-out: Test A disease control rating): 100%
pest or weed control at 250 ppm ([5]; Plasmopara viticola, 250 ppm, 100 = 100% disease control, 0 = no control, read-out: Test D disease control rating): 11%
pest or weed control at 250 ppm ([6]; Puccinia recondita, 250 ppm, wheat seedlings, 100 = 100% disease control, 0 = no control, read-out: Test B disease control rating): 100%
pest or weed control at 250 ppm ([7]; Zymoseptoria tritici, 250 ppm, wheat seedlings, 100 = 100% disease control, 0 = no control, read-out: Test C disease control rating): 100%

COc1ccnc2c(=O)n([C@@H](C)C(=O)OC(C)c3ccc(C4CCCCC4)cc3)c(=O)oc12 (single isomer, unassigned) [Compound 194]
Test G disease control rating (100 = 100% disease control, 0 = no disease control) [1]: 0%
Test E disease control rating (100 = 100% disease control, 0 = no disease control) [2]: 0%
Test F disease control rating (100 = 100% disease control, 0 = no disease control) [3]: 0%
Test A disease control rating (100 = 100% disease control, 0 = no disease control) [4]: 87%
Test D disease control rating (100 = 100% disease control, 0 = no disease control) [5]: 18%
Test B disease control rating (100 = 100% disease control, 0 = no disease control) [6]: 68%
Test C disease control rating (100 = 100% disease control, 0 = no disease control) [7]: 37%

COc1ccnc(C(=O)N[C@@H](C)C(=O)OC(C)c2ccccc2Cc2ccc(F)cc2)c1OC(C)=O (single isomer, unassigned) [Compound 22]
Test G disease control rating [1, 8]: 0%
Test E disease control rating [2, 8]: 0%
Test F disease control rating [3, 8]: 0%
Test A disease control rating [4, 9]: 100%
Test D disease control rating [5, 8]: 61%
Test B disease control rating [6, 10]: 99%
Test C disease control rating [7, 10]: 85%

COc1ccnc(C(=O)NC(C)C(=O)OC(C)C2CCC(C(C)(C)C)CC2)c1OC(C)=O (mixture of isomers) [Compound 181]
Test G disease control rating [1, 8]: 0%
Test E disease control rating [2, 8]: 0%
Test F disease control rating [3, 8]: 26%
Test A disease control rating [4, 9]: 100%
Test D disease control rating [5, 8]: 80%
Test B disease control rating [6, 10]: 100%
Test C disease control rating [7, 10]: 100%

COc1ccnc(C(=O)N[C@@H](C)C(=O)OC(C)c2ccc(C3CCCCC3)cc2)c1OCOC(=O)C(C)C (single isomer, unassigned) [Compound 145]
Test G disease control rating [1, 8]: 0%
Test E disease control rating [2, 8]: 0%
Test F disease control rating [3, 8]: 0%
Test A disease control rating [4, 9]: 100%
Test D disease control rating [5, 8]: 22%
Test B disease control rating [6, 10]: 99%
Test C disease control rating [7, 10]: 94%

COc1ccnc(C(=O)NC(C)C(=O)OC(C)C2COc3ccccc32)c1OC(C)=O (mixture of isomers) [Compound 191]
Test G disease control rating (100 = 100% disease control, 0 = no disease control) [1]: 21%
Test E disease control rating (100 = 100% disease control, 0 = no disease control) [2]: 0%
Test F disease control rating (100 = 100% disease control, 0 = no disease control) [3]: 0%
Test A disease control rating (100 = 100% disease control, 0 = no disease control) [4]: 100%
Test D disease control rating (100 = 100% disease control, 0 = no disease control) [5]: 26%
Test B disease control rating (100 = 100% disease control, 0 = no disease control) [6]: 96%
Test C disease control rating (100 = 100% disease control, 0 = no disease control) [7]: 89%

COc1ccnc(C(=O)NC(C)C(=O)OC(C)c2ccc(C#N)cc2)c1O (mixture of isomers) [Compound 34]
Test G disease control rating [1, 8]: 0%
Test E disease control rating [2, 8]: 0%
Test F disease control rating [3, 8]: 0%
Test A disease control rating [4, 9]: 0%
Test D disease control rating [5, 8]: 58%
Test B disease control rating [6, 10]: 0%
Test C disease control rating [7, 10]: 13%

COc1ccnc(C(=O)NC(C)C(=O)OC(C)c2cccc(-n3ccc(C(F)(F)F)n3)c2)c1OC(C)=O (mixture of isomers) [Compound 27]
Test G disease control rating [1, 8]: 0%
Test E disease control rating [2, 8]: 0%
Test F disease control rating [3, 8]: 0%
Test A disease control rating [4, 9]: 98%
Test D disease control rating [5, 8]: 38%
Test B disease control rating [6, 10]: 99%
Test C disease control rating [7, 10]: 81%

COc1ccnc(C(=O)NC(C)C(=O)OC(C)C2CCC(C)(C)CC2)c1OC(C)=O (mixture of isomers) [Compound 165]
Test G disease control rating [1, 8]: 0%
Test E disease control rating [2, 8]: 0%
Test F disease control rating [3, 8]: 0%
Test A disease control rating [4, 9]: 100%
Test D disease control rating [5, 8]: 10%
Test B disease control rating [6, 10]: 100%
Test C disease control rating [7, 10]: 97%
